Data as given in publication PMC6413183, “Regulatory Aspects of the Vacuolar CAT2 Arginine Transporter of S. lycopersicum: Role of Osmotic Pressure and Cations” (International Journal of Molecular Sciences, 2019).
Where two headings read alike, the source gives them in different places. Each block holds one compound with its values, some of them ahead of it.

Experiments:
[1] = tested on: SlCAT2; experiment: [3H]Arg uptake in proteoliposomes reconstituted with recombinant SlCAT2; format: biochemical, S. lycopersicum; details: for effect of intraliposomal cations on [3H]Arg uptake: cation in internal compartment at about vacuolar concentration, K+ and Na+ versus no osmolytes, extent equal to isoosmolar sucrose (osmotic effect); for inhibition of [3H]Arg uptake by external monovalent cations / inhibition of [3H]Arg uptake by external divalent cations: extraliposomal cation at about cytosolic concentration; for inhibition of [3H]Arg uptake by external monovalent cations: with respect to 40 mM sucrose used as control of osmolality; for inhibition of [3H]Arg uptake by external divalent cations: with respect to sucrose (1.2 mM) used as control of osmolality; for effect of external K+ salts on [3H]Arg uptake: salt in extraliposomal compartment, KCl compared to K-gluconate
Method: The desalted SlCAT2 was reconstituted by removing the detergent from mixed micelles containing detergent, protein, and phospholipids by incubation with Amberlite XAD-4 in a batch-wise procedure, as previously described. The composition of the initial mixture used for reconstitution (except when differently indicated) was 400 µL of the purified protein (6 µg protein in 0.1% DDM), 80 µL of 10 % TX-100, 120 µL of 10% egg yolk phospholipids in the form of sonicated liposomes prepared as previously described, 15 mM ATP, and 10 mM Tris Hepes pH 7.5 (except where differently indicated) in a final volume of 700 µL. After vortexing, this mixture was incubated with 0.5 g Amberlite XAD-4 under rotatory stirring (1200 rpm) at 23 °C for 40 min in a batchwise procedure as previously pointed out.
Five-hundred-and-fifty microliters of proteoliposomes were passed through a Sephadex G-75 column (0.7 cm diameter × 15 cm height) preequilibrated with 10 mM Tris Hepes pH 7.5. From these columns, 550 µL of proteoliposomes were collected and divided into aliquots (samples) of 100 µL. Transport was started by adding 100 µM of [^3H]Arg to the proteoliposome samples. The pH gradient experiments were performed reconstituting protein in liposome with 10 mM Tris Hepes pH 5.5. After incubation with Amberlite XAD 4 resin, 550 µL of proteoliposomes were passed through a Sephadex G-75 column preequilibrated with 0.5 mM Tris Hepes pH 5.5.
The changes in external/internal osmolality were performed by adding in the extraliposomal/intraliposomal compartment appropriate concentrations of sucrose as indicated in the figure legend.
Transport reaction was stopped by adding 5 mM Pyridoxal Phosphate (PLP); according to the stop inhibitor method, the same inhibitor was added at time zero to control samples (blank). The initial rate was measured in 10 min, i.e., in the linear range of time courses as previously described. The PLP insensitive radioactivity associated with the control samples (blank) was less than 30% with respect to the PLP-sensitive arginine transport.
The experimental values were corrected by subtracting the respective controls. Specific activity was calculated and expressed as nmol/mg at a given time of measurement or as nmol/(mg × min) in the case of initial rate measurement. For calculation of initial rate, transport was measured in 10 min, i.e., within the initial linear part of the uptake. Grafit 5.0.13 software (Erithacus Software, West Sussex, UK) was used to derive IC50 values in inhibition assays and to measure transport rate by first-order rate equation and by a single exponential decay with offset.

[2] = tested on: SlCAT2; experiment: [3H]Arg efflux from preloaded proteoliposomes reconstituted with SlCAT2; format: biochemical, S. lycopersicum; details: 0.45 mM Mg2+ in the extraliposomal compartment; proteoliposomes preloaded with 100 µM [3H]Arg
Method: Figure 9 Efflux from proteoliposomes reconstituted with SlCAT2. SlCAT2 was purified and reconstituted in proteoliposomes as described in Section 4.4. Arginine efflux was measured at the indicated time, as described in Section 4.5. Internal residual radioactivity was measured as percent with respect to control (time 0), in the absence (open circle) or in the presence (closed circle) of 0.45 mM Mg^2+ in the extraliposomal compartment. Data are plotted using the single exponential equation with offset as described in Section 4.5. Results are the means ± SD from three experiments.
For efflux measurements, proteoliposomes containing 15 mM ATP were preloaded by incubation with 100 µM [^3H]Arg (1 µCi/mL) for 90 min [64]. In both uptake and efflux, transport was stopped by passing 100 µL of each sample through a Sephadex G-75 column (0.6 cm diameter × 8 cm height) in order to separate the external from the internal radioactivity. Samples were eluted with 1 mL 50 mM NaCl and collected in 4 mL of scintillation mixture, vortexed and counted.
The experimental values were corrected by subtracting the respective controls. Specific activity was calculated and expressed as nmol/mg at a given time of measurement or as nmol/(mg × min) in the case of initial rate measurement. For calculation of initial rate, transport was measured in 10 min, i.e., within the initial linear part of the uptake. […]

[3] = cation in extraliposomal compartment (NaCl, K-gluconate, NH4Cl, MgCl2), 100 μM [3H]Arg, 20 min, proteoliposomes containing 200 mM sucrose and 15 mM ATP, pH 7.5, read-out: IC50 for inhibition of [3H]Arg uptake by external cations

Compound: OC[C@H]1O[C@@](CO)(O[C@H]2O[C@H](CO)[C@@H](O)[C@H](O)[C@H]2O)[C@@H](O)[C@@H]1O [sucrose]
effect of 1.2 mM external sucrose on transport activity ([1]; 1.2 mM sucrose external, with respect to control without sucrose): no difference of activity | effect of 40 mM external sucrose on transport activity ([1]; 40 mM sucrose external, with respect to the condition without sucrose): caused a reduction of transport activity | [3H]Arg uptake as percent of the control with external sucrose ([1]; 50 mM sucrose in external compartment, 200 mM sucrose and 15 mM ATP inside, pH 7.5, 10 min): about 45% | transport rate of [3H]Arg uptake with external sucrose ([1]; 50 mM sucrose in external compartment, control without external sucrose 0.93 ± 0.2, 10 min, pH 7.5): 0.51 ± 0.18 nmol/mg/min | change of [3H]Arg uptake with intraliposomal sucrose ([1]; intraliposomal osmolality 50 to 175 mOsmol, plateau up to 225 mOsmol, 15 mM ATP, pH 7.5, 10 min): increased approximately three times

IC50 [1, 3]: 5.7 ± 1.49 mM
Compound: Cl.N [NH4^+]
effect of intraliposomal cations on [3H]Arg uptake ([1]; 15 mM ATP, pH 7.5, 20 min): did not exert any significant effect | inhibition of [3H]Arg uptake by external monovalent cations ([1]; 20 min, pH 7.5): ~ 40%

IC50 [1, 3]: 11.3 ± 1.2 mM
Compound: [K+] [K^+]
effect of intraliposomal cations on [3H]Arg uptake ([1]; 15 mM ATP, pH 7.5, 20 min): activation | inhibition of [3H]Arg uptake by external monovalent cations ([1]; 20 min, pH 7.5): ~ 40%

IC50 ([1]; Mg2+ in internal compartment, with 200 mM sucrose and 15 mM intraliposomal ATP, pH 7.5, 20 min, read-out: IC50 for inhibition of [3H]Arg uptake by intraliposomal Mg2+): 23 ± 9.9 mM | IC50 [1, 3]: 0.42 ± 0.18 mM
Compound: [Cl-].[Cl-].[Mg+2] [Mg^2+]
effect of external Mg2+ on [3H]Arg efflux [2]: no, or only a slight, effect | inhibition of [3H]Arg uptake by intraliposomal Mg2+ in the absence of internal ATP ([1]; Mg2+ in internal compartment, 200 mM sucrose, no intraliposomal ATP, 20 min): virtually disappeared | effect of intraliposomal cations on [3H]Arg uptake ([1]; 15 mM ATP, pH 7.5, 20 min): strong inhibitory effect | inhibition of [3H]Arg uptake by external divalent cations ([1]; 20 min, pH 7.5): 33%

IC50 [1, 3]: 10.9 ± 0.8 mM
Compound: [Cl-].[Na+] [Na^+]
effect of intraliposomal cations on [3H]Arg uptake ([1]; 15 mM ATP, pH 7.5, 20 min): activation | inhibition of [3H]Arg uptake by external monovalent cations ([1]; 20 min, pH 7.5): ~ 40%

Compound: [Cl-].[K+] [KCl]
effect of external K+ salts on [3H]Arg uptake ([1]; 20 min, pH 7.5): inhibited

Compound: O=C([O-])[C@H](O)[C@@H](O)[C@H](O)[C@H](O)CO.[K+] [K-gluconate]
effect of external K+ salts on [3H]Arg uptake ([1]; 20 min, pH 7.5): no difference between the two K^+ salts

Compound: Nc1ncnc2c1ncn2[C@@H]1O[C@H](COP(=O)(O)OP(=O)([O-])OP(=O)([O-])O)[C@@H](O)[C@H]1O.[Na+].[Na+] [ATP]
effect of extraliposomal ATP on [3H]Arg uptake ([1]; ATP (Na+)2 salt added externally, partially due to Na+ and osmolality, 200 mM sucrose and 15 mM ATP inside, pH 7.5, 20 min): inhibited

Compound: [Ca+2].[Cl-].[Cl-] [Ca^2+]
effect of intraliposomal cations on [3H]Arg uptake ([1]; 15 mM ATP, pH 7.5, 20 min): did not exert any significant effect | inhibition of [3H]Arg uptake by external divalent cations ([1]; 20 min, pH 7.5): did not exert a significant effect

Compound: CC(C)CCC[C@@H](C)[C@H]1CC[C@H]2[C@@H]3CC=C4C[C@@H](OC(=O)CCC(=O)O)CC[C@]4(C)[C@H]3CC[C@]12C [CHS, Cholesteryl hemisuccinate, reference compound]
stimulation of [3H]Arg uptake by CHS in the proteoliposomal membrane ([1]; 1 mg of CHS in 1 mL proteoliposomes, corresponding to 10% of total lipid composition, 20 min, pH 7.5): up to 30%
